From PMC9243172 (Heliyon, 2022)

What was measured:
CYP3A4 = CYP3A4 (Homo sapiens, UniProt P08684); test: Inhibition of CYP3A4; assay type: biochemical
CYP2D6 = CYP2D6 (Homo sapiens, UniProt P10635); test: Inhibition of CYP2D6; assay type: biochemical
CYP2C9 = CYP2C9 (Homo sapiens, UniProt P11712); test: Inhibition of CYP2C9
CYP1A2 = target: T1, CYP1A2 (Homo sapiens, UniProt P05177); test: Inhibition of CYP1A2; assay type: biochemical
T1 sequence (P05177 1-516): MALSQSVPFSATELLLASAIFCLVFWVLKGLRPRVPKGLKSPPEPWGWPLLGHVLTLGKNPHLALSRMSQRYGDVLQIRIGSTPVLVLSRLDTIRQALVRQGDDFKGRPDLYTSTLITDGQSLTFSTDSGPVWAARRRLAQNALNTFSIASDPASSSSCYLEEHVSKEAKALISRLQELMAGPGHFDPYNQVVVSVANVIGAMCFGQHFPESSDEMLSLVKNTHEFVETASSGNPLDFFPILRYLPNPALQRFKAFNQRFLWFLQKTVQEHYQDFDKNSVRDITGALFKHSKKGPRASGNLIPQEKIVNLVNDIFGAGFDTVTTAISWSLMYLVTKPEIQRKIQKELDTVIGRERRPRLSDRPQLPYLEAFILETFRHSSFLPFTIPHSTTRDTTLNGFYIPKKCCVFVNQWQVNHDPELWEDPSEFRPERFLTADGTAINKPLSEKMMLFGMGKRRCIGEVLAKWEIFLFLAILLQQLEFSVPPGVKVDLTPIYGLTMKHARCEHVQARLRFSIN

[1] = Pharmacokinetic interaction of Triphala extract with midazolam in rats; settings: for k el: Kel; for half-life: T1/2, rats
[2] = Pharmacokinetic interaction of Triphala extract with phenacetin in rats; settings: for k el: Kel; for half-life: T1/2, rats
P-gp = P-gp (Homo sapiens, UniProt P08183); test: Rhodamine-123 permeability across Caco-2 cell monolayers; settings: Caco-2, pH 7.4
Chain of P-gp (P08183 whole entry): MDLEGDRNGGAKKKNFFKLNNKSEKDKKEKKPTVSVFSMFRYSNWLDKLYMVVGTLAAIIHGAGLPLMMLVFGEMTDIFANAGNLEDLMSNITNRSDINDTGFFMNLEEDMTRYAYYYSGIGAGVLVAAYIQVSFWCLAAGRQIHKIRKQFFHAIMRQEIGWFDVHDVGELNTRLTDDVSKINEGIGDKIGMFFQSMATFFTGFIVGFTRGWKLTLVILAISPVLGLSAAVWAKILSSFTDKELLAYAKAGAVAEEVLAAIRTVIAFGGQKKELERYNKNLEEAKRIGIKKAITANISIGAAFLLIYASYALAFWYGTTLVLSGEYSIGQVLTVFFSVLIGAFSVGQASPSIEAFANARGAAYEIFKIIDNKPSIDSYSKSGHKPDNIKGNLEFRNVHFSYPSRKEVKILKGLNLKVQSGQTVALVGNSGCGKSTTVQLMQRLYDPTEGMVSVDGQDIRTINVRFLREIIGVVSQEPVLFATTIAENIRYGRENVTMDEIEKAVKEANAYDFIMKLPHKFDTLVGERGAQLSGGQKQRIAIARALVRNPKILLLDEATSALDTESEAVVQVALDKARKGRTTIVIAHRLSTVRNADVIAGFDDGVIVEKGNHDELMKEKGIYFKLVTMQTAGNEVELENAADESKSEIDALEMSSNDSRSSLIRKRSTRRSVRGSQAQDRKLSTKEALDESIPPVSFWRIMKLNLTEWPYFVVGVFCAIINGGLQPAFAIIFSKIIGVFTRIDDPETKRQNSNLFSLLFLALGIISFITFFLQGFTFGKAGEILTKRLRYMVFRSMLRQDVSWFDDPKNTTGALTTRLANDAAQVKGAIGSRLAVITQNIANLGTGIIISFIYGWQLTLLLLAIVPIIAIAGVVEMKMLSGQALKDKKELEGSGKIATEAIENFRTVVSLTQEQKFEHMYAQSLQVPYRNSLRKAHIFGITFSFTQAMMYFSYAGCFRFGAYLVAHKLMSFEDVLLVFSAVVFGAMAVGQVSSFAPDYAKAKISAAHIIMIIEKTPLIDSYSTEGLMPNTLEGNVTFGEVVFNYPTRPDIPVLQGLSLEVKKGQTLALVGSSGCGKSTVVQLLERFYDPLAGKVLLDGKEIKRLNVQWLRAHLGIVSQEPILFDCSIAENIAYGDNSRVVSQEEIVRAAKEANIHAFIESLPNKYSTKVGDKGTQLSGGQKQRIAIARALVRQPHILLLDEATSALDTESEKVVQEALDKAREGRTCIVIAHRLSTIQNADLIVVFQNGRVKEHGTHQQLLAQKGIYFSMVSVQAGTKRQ

[3] = male, Wistar, rat, plasma, iv, 5 mg/kg, rats, midazolam 5 mg/kg iv, control (midazolam alone)
[4] = male, Wistar, rat, plasma, po, 20 mg/kg, rats, midazolam 20 mg/kg oral, control (midazolam alone)
[5] = rats, midazolam 20 mg/kg oral, control (midazolam alone)
[6] = rats, oral co-administration of Triphala 500 mg/kg, vs control
[7] = male, Wistar, rat, plasma, iv, 5 mg/kg, rats, phenacetin 5 mg/kg iv, control (phenacetin alone)
[8] = male, Wistar, rat, plasma, po, 30 mg/kg, rats, phenacetin 30 mg/kg oral, control (phenacetin alone)
[9] = rats, phenacetin 30 mg/kg oral, control (phenacetin alone)

Chain of CYP2C9 (P11712 whole entry): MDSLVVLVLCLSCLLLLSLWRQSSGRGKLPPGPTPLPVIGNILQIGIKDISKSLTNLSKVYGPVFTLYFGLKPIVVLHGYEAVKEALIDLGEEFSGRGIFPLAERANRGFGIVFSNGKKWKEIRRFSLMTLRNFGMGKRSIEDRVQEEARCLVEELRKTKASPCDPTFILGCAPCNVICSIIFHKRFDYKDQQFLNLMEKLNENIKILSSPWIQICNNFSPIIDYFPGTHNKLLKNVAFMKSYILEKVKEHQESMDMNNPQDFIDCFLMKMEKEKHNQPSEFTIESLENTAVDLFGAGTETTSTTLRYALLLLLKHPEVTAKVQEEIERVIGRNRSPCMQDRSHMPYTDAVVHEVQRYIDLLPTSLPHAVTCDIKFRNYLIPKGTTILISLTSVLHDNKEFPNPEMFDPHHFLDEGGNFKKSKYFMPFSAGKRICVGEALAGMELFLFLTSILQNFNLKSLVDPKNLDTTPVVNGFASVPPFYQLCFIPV
Chain of CYP2D6 (P10635 whole entry): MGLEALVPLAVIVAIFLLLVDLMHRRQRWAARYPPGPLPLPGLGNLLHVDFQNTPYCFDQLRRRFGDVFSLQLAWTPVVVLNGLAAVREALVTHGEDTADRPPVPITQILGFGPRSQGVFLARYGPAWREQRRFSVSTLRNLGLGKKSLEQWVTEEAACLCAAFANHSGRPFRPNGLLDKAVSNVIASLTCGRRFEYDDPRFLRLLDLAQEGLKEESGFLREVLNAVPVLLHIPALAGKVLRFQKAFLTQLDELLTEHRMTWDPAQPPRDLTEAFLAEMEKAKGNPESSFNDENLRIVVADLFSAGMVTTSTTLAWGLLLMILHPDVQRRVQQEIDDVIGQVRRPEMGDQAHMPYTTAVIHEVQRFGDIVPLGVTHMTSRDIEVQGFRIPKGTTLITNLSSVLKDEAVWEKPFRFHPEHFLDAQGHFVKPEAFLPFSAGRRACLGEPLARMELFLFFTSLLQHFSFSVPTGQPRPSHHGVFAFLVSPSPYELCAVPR
Chain of CYP3A4 (P08684 whole entry): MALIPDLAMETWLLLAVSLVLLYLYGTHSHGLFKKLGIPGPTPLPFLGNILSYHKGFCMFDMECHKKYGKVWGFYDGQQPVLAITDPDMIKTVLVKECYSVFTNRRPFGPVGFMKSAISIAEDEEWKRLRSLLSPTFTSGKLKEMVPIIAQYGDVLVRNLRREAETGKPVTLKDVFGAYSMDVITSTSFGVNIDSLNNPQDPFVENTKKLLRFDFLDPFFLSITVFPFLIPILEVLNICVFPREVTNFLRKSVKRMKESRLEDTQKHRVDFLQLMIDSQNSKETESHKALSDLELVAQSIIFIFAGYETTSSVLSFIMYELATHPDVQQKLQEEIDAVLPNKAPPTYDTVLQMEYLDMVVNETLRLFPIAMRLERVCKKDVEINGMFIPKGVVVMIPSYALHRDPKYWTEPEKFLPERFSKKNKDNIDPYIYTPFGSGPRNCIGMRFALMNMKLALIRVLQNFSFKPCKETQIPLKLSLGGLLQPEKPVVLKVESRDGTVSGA

`O=c1oc2c(O)c(O)cc3c(=O)oc4c(O)c(O)cc1c4c23` [Ellagic acid] showed an IC50 (CYP3A4) of 23.2 µM, an IC50 (CYP2D6) of 42.4 µM and an IC50 (CYP2C9) of 27.1 µM. The IC50 (CYP1A2) was 12.6 µM.
For `Cc1ncc2n1-c1ccc(Cl)cc1C(c1ccccc1F)=NC2` [midazolam], the AUC [1, 3] was 670 ± 270 ng·h/mL, the clearance ([1]; male, Wistar, rat, plasma, iv, 5 mg/kg, CLtot, rats, midazolam 5 mg/kg iv, control (midazolam alone)) was 83.5 mL/min and the Cmax [1, 3] was 910 ± 130 ng/mL. The k el [1, 3] was 0.00015 s⁻¹, the MRT [1, 3] was 64.8 ± 27.6 min and the half-life ([1]; male, Wistar, rat, plasma, iv, 5 mg/kg, midazolam 5 mg/kg iv, control (midazolam alone)) was 58.8 ± 23.4 min. It also gave an AUC [1, 4] of 1070 ± 70 ng·h/mL, a Cmax [1, 4] of 950 ± 130 ng/mL and a k el [1, 4] of 0.000194 s⁻¹. For the same compound, the MRT [1, 4] was 88.8 ± 14.4 min, the half-life ([1]; male, Wistar, rat, plasma, po, 20 mg/kg, midazolam 20 mg/kg oral, control (midazolam alone)) was 63.6 ± 11.4 min and the Tmax ([1]; male, Wistar, rat, plasma, po, 20 mg/kg, Tmax, rats, midazolam 20 mg/kg oral, control (midazolam alone)) was 22.8 ± 2.4 min. For the same compound, the Vdss ([1]; rats, midazolam 5 mg/kg iv, control (midazolam alone)) was 7.44 ± 4.0 L/h, the CLtot/F [1, 5] was 18.89 ± 1.08 L/h and the Vdss/F [1, 5] was 28.05 ± 4.9 L/h. For the same compound, the “Increase of bioavailability of midazolam” value [1, 6] was about 40.7%.
Compound `CCOc1ccc(NC(C)=O)cc1` [phenacetin] has an AUC(0-t) ([2]; male, Wistar, rat, plasma, iv, 5 mg/kg, AUC0-t, rats, phenacetin 5 mg/kg iv, control (phenacetin alone)) of 1770 ± 190 ng·h/mL, a clearance ([2]; male, Wistar, rat, plasma, iv, 5 mg/kg, CLtot, rats, phenacetin 5 mg/kg iv, control (phenacetin alone)) of 48.3 mL/min and a Cmax ([2]; male, Wistar, rat, plasma, iv, 5 mg/kg, Cmax, rats, phenacetin 5 mg/kg iv, control (phenacetin alone)) of 3650 ± 390 ng/mL. The k el [2, 7] was 0.000728 s⁻¹, the MRT [2, 7] was 21 ± 1.2 min and the half-life ([2]; male, Wistar, rat, plasma, iv, 5 mg/kg, phenacetin 5 mg/kg iv, control (phenacetin alone)) was 16.2 ± 1.2 min. For the same compound, the k el [2, 8] was 0.000206 s⁻¹, the MRT [2, 8] was 79.2 ± 12 min and the half-life ([2]; male, Wistar, rat, plasma, po, 30 mg/kg, phenacetin 30 mg/kg oral, control (phenacetin alone)) was 58.8 ± 7.2 min. For the same compound, the Tmax ([2]; male, Wistar, rat, plasma, po, 30 mg/kg, Tmax, rats, phenacetin 30 mg/kg oral, control (phenacetin alone)) was 19.8 ± 6 min, the “Enhancement of bioavailability (F) of phenacetin compared with control” value ([2]; rats, oral Triphala extract 100 mg/kg) was “approximately 1.2 fold” and the “Enhancement of bioavailability (F) of phenacetin compared with control” value ([2]; rats, oral Triphala extract 500 mg/kg) was about 1.6 fold. The “Increase of bioavailability of phenacetin” value [2, 6] was “about 61.2%”, the Vdss ([2]; rats, phenacetin 5 mg/kg iv, control (phenacetin alone)) was 1.02 ± 0.1 L/h and the Vdss ([2]; rats, phenacetin 5 mg/kg iv, oral Triphala extract 100 mg/kg) was 1.26 ± 0.2 L/h. The Vdss ([2]; rats, phenacetin 5 mg/kg iv, oral Triphala extract 500 mg/kg) was 0.93 ± 0.1 L/h, the CLtot/F [2, 9] was 7.74 ± 2.63 L/h and the Cmax [2, 9] was 3310 ± 670 ng/mL. The Vdss/F [2, 9] was 9.06 ± 1.9 L/h.
Work on `COC(=O)c1ccccc1-c1c2ccc(=N)cc-2oc2cc(N)ccc12` [Rhodamine 123, rhodamine-123] yielded a Papp A→B at 120 min, 2.5 μg/mL (P-gp) of 64 ± 10 ×10⁻⁶ cm/s, a Papp B→A at 120 min, 2.5 μg/mL (P-gp) of 190 ± 3 ×10⁻⁶ cm/s and an efflux ratio at 120 min, 2.5 μg/mL (P-gp) of 3.2 ± 0.5.
With `O=C(O)c1cc(O)c(O)c(O)c1` [Gallic acid] the IC50 (CYP2D6) was 265 µM, the IC50 (CYP2C9) was 338 µM and the IC50 (CYP1A2) was 89.9 µM.
